Measured values from patent US20260217706A1, “HETEROCYCLIC COMPOUNDS, PREPARATION METHOD THEREFOR AND USE THEREOF” (GUANGZHOU YUFAN NANTU BIOTECHNOLOGIES CO., LTD, priority 2023, published 2026).

Assays:
CBL-B protein = CBL-B protein (Homo sapiens, UniProt Q13191); test: CBL-B binding experiment (Streptavidin-Tb cryptate / Ligand L1 displacement); conditions: 8 nM CBL-B protein, 25° C., 60 minutes; Ki=Relative IC50/2
In short: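 Buffer was 20 mM HEPES pH 7.5, 150 mM NaCl, 0.01% Triton X-100, 0.5 mM TCEP and BSA. Ten-point compound dilutions were incubated with 8 nM CBL-B for 60 min at 25° C., then read by luminescence after another 60 min at room temperature. IC50 came from a four-parameter fit, with Ki = relative IC50/2.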

[1] = tested on: anti-CD3 activated human PBMCs; test: Effect of compounds on the level of IL-2 secretion by anti-CD3 activated human PBMCs (IL-2 ELISA); type: cell-based; conditions: compound concentration at which fold change in IL-2 = 5; hPBMCs, CD3 antibody 2 μg/mL, 48 h, compound from 3 μM
In short: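 Human PBMCs were preincubated 1 h, then exposed to compound (10 points, 3-fold from 3 μM final) with anti-CD3 at 2 μg/mL for 48 h at 37° C. Supernatant IL-2 was measured by ELISA as fold change over DMSO.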

Sequence of CBL-B protein (Q13191 whole entry): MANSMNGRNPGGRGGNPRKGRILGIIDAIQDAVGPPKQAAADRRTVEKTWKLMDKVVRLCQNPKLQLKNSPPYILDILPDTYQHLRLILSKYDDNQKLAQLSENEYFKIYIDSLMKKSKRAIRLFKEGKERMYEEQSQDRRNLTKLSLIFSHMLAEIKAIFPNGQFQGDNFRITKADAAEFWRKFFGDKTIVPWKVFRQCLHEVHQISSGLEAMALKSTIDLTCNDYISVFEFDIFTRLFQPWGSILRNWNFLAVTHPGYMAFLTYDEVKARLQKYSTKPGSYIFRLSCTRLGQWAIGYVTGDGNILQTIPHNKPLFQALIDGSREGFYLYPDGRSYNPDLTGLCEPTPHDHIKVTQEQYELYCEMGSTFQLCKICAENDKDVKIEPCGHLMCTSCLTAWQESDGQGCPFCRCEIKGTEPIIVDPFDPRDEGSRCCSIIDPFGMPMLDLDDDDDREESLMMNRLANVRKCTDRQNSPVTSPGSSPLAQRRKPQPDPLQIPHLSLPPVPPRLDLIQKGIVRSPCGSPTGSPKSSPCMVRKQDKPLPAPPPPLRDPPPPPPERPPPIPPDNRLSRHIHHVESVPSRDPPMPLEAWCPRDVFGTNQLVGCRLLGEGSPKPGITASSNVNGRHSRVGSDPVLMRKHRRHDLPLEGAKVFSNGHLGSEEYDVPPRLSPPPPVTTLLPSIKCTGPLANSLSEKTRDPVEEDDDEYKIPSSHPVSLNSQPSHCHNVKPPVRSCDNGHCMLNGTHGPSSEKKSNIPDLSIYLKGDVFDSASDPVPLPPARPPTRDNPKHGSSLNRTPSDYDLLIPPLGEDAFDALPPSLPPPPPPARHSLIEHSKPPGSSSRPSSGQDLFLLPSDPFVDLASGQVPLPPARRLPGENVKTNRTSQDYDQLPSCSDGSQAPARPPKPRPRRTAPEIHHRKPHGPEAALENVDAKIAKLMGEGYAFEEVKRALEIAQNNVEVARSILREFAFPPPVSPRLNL

SMILES	Ki (CBL-B protein)	IL-2 CFC=5/nM [1]
C[C@H]1CCCN(Cc2cc3c(C(F)(F)F)cn(-c4cc(F)cc([C@]5(c6nncn6C)C[C@H](C)C5)c4)c(=O)c3[nH]2)C1 [Compound T103, 6-(3-fluoro-5-((1r,3S)-3-methyl-1-(4-methyl-4H-1,2,4-triazol-3-yl)cyclobutyl)phenyl)-2-(((S)-3-methylpiperidin-1-yl)methyl)-4-(trifluoromethyl)-1,6-dihydro-7H-pyrrolo[2,3-c]pyridin-7-one]	< 50 nM	<500 nM
CC(C)NCc1cc2c(C(F)(F)F)cn(-c3cccc(C4(c5nncn5C)CCC4)c3)c(=O)c2[nH]1 [Compound T104, 2-((isopropylamino)methyl)-6-(3-(1-(4-methyl-4H-1,2,4-triazol-3-yl)cyclobutyl)phenyl)-4-(trifluoromethyl)-1,6-di hydro-7H-pyrrolo[2,3-c]pyridin-7-one]	< 50 nM	<500 nM
C[C@H]1CCCN(Cc2cc3c(C(F)(F)F)cn(-c4cccc(C5(c6nncn6C)CC(F)(F)C5)c4)c(=O)c3[nH]2)C1 [Compound T109, 6-[3-[3,3-difluoro-1-(4-methyl-1,2,4-triazol-3-yl)cyclobutyl]phenyl]-2-[[(3S)-3-methyl-1-piperidyl]methyl]-4-(trifluoromethyl)-1H-pyrrolo[2,3-c]pyridin-7-one]	< 50 nM	<500 nM
C[C@@H]1CN(Cc2cc3c(C(F)(F)F)cn(-c4cccc(C5(c6nncn6C)CCC5)c4)c(=O)c3[nH]2)CCC1(F)F [Compound T111, (R)-2-((4,4-difluoro-3-methylpiperidin-1-yl)methyl)-6-(3-(1-(4-methyl-4H-1,2,4-triazol-3-yl)cyclobutyl)phenyl)-4-(trifluoromethyl)-1,6-dihydro-7H-pyrrolo[2,3-c]pyridin-7-one]	< 50 nM	<500 nM
C[C@H]1CCCN(Cc2cc3c(C(F)(F)F)cn(-c4cccc(C5([C@@H](F)c6nncn6C)CC(F)(F)C5)c4)c(=O)c3[nH]2)C1 [Compound T119, 6-(3-(3,3-difluoro-1-((R)-fluoro(4-methyl-4H-1,2,4-triazol-3-yl)methyl)cyclobutyl)phenyl)-2-(((S)-3-methylpiperidin-1-yl)methyl)-4-(trifluoromethyl)-1,6-dihydro-7H-pyrrolo[2,3-c]pyridin-7-one]	< 50 nM	<500 nM
C[C@H]1CCCN(Cc2cc3c(C(F)(F)F)cn(-c4cccc(C5([C@H](F)c6nncn6C)CC(F)(F)C5)c4)c(=O)c3[nH]2)C1 [Compound T120, 6-(3-(3,3-difluoro-1-((S)-fluoro(4-methyl-4H-1,2,4-triazol-3-yl)methyl)cyclobutyl)phenyl)-2-(((S)-3-methylpiperidin-1-yl)methyl)-4-(trifluoromethyl)-1,6-dihydro-7H-pyrrolo[2,3-c]pyridin-7-one]	< 50 nM	<500 nM
C[C@H]1CCCN(Cc2cc3c(C(F)(F)F)cn(-c4cc(C#N)cc([C@]5(c6nncn6C)C[C@@H](C)C5)c4)c(=O)c3[nH]2)C1 [Compound T121, 3-((1s,3R)-3-methyl-1-(4-methyl-4H-1,2,4-triazol-3-yl)cyclobutyl)-5-(2-(((S)-3-methylpiperidin-1-yl)methyl)-7-oxo-4-(trifluoromethyl)-1,7-dihydro-6H-pyrrolo[2,3-c]pyridin-6-yl)benzonitrile]	< 50 nM	<500 nM
C[C@H]1CCCN(Cc2cc3c(C(F)(F)F)cn(-c4cc(C#N)cc([C@]5(c6nncn6C)C[C@H](C)C5)c4)c(=O)c3[nH]2)C1 [Compound T122, 3-((1r,3S)-3-methyl-1-(4-methyl-4H-1,2,4-triazol-3-yl)cyclobutyl)-5-(2-(((S)-3-methylpiperidin-1-yl)methyl)-7-oxo-4-(trifluoromethyl)-1,7-dihydro-6H-pyrrolo[2,3-c]pyridin-6-yl)benzonitrile]	< 50 nM	<500 nM
C[C@H]1CCCN(Cc2cc3c(C(F)(F)F)cn(-c4cccc(C5(Cc6nncn6C)CC(F)(F)C5)c4)c(=O)c3[nH]2)C1 [Compound T126, 6-[3-[3,3-difluoro-1-[(4-methyl-1,2,4-triazol-3-yl)methyl]cyclobutyl]phenyl]-2-[[(3S)-3-methyl-1-piperidyl]methyl]-4-(trifluoromethyl)-1H-pyrrolo[2,3-c]pyridin-7-one]	< 50 nM	<500 nM
C[C@H]1CCCN(Cc2cc3c(C(F)(F)F)cn(-c4cccc([C@]5(c6nncn6C)C[C@@H](OC(F)(F)F)C5)c4)c(=O)c3[nH]2)C1 [Compound T130, 6-(3-((1s,3R)-1-(4-methyl-4H-1,2,4-triazol-3-yl)-3-(trifluoromethoxy)cyclobutyl)phenyl)-2-(((S)-3-methylpiperidin-1-yl)methyl)-4-(trifluoromethyl)-1,6-dihydro-7H-pyrrolo[2,3-c]pyridin-7-one]	< 50 nM	<500 nM
C[C@H]1CCCN(Cc2cc3c(C(F)(F)F)cn(-c4cccc([C@]5(c6nncn6C)C[C@H](OC(F)(F)F)C5)c4)c(=O)c3[nH]2)C1 [Compound T131, 6-(3-((1r,3S)-1-(4-methyl-4H-1,2,4-triazol-3-yl)-3-(trifluoromethoxy)cyclobutyl)phenyl)-2-(((S)-3-methylpiperidin-1-yl)methyl)-4-(trifluoromethyl)-1,6-dihydro-7H-pyrrolo[2,3-c]pyridin-7-one]	< 50 nM	<500 nM
CO[C@H]1C[C@@](c2cccc(-n3cc(C(F)(F)F)c4cc(CN5CCC[C@H](C)C5)[nH]c4c3=O)c2)(c2nncn2C)C1 [Compound T134, 6-(3-((1s,3R)-3-methoxy-1-(4-methyl-4H-1,2,4-triazol-3-yl)cyclobutyl)phenyl)-2-(((S)-3-methylpiperidin-1-yl)methyl)-4-(trifluoromethyl)-1,6-dihydro-7H-pyrrolo[2,3-c]pyridin-7-one]	< 50 nM	<500 nM
CO[C@H]1C[C@](c2cccc(-n3cc(C(F)(F)F)c4cc(CN5CCC[C@H](C)C5)[nH]c4c3=O)c2)(c2nncn2C)C1 [Compound T135, 6-(3-((1r,3S)-3-methoxy-1-(4-methyl-4H-1,2,4-triazol-3-yl)cyclobutyl)phenyl)-2-(((S)-3-methylpiperidin-1-yl)methyl)-4-(trifluoromethyl)-1,6-dihydro-7H-pyrrolo[2,3-c]pyridin-7-one]	< 50 nM	<500 nM
CO[C@H]1C[C@@](c2cccc(-n3cc(C(F)(F)F)c4cc(CN5CC6CCC(C6)C5)[nH]c4c3=O)c2)(c2nncn2C)C1 [Compound T145, 2-((3-azabicyclo[3.2.1]octan-3-yl)methyl)-6-(3-((1s,3s)-3-methoxy-1-(4-methyl-4H-1,2,4-triazol-3-yl)cyclobutyl)phenyl)-4-(trifluoromethyl)-1,6-dihydro-7H-pyrrolo[2,3-c]pyridin-7-one]	< 50 nM	<500 nM
CO[C@H]1C[C@@](c2cccc(-n3cc(C(F)(F)F)c4cc(CN5CCCC6(CC6)C5)[nH]c4c3=O)c2)(c2nncn2C)C1 [Compound T147, 2-((5-azaspiro[2.5]octan-5-yl)methyl)-6-(3-((1s,3s)-3-methoxy-1-(4-methyl-4H-1,2,4-triazol-3-yl)cyclobutyl)phenyl)-4-(trifluoromethyl)-1,6-dihydro-7H-pyrrolo[2,3-c]pyridin-7-one]	< 50 nM	<500 nM
CCN(Cc1cc2c(C(F)(F)F)cn(-c3cccc([C@]4(c5nncn5C)C[C@@H](OC)C4)c3)c(=O)c2[nH]1)CC(C)C [Compound T149, 2-((ethyl(isobutyl)amino)methyl)-6-(3-((1s,3s)-3-methoxy-1-(4-methyl-4H-1,2,4-triazol-3-yl)cyclobutyl)phenyl)-4-(trifluoromethyl)-1,6-dihydro-7H-pyrrolo[2,3-c]pyridin-7-one]	< 50 nM	<500 nM
CO[C@H]1C[C@](c2cccc(-n3cc(C(F)(F)F)c4cc(CNCCC5CC5)[nH]c4c3=O)c2)(c2nncn2C)C1 [Compound T154, 2-(((2-cyclopropylethyl)amino)methyl)-6-(3-((1r,3r)-3-methoxy-1-(4-methyl-4H-1,2,4-triazol-3-yl)cyclobutyl)phenyl)-4-(trifluoromethyl)-1,6-dihydro-7H-pyrrolo[2,3-c]pyridin-7-one]	< 50 nM	<500 nM
CO[C@H]1C[C@](c2cccc(-n3cc(C(F)(F)F)c4cc(CN5CCCC(C(F)F)C5)[nH]c4c3=O)c2)(c2nncn2C)C1 (stereo partly shown) [Compound T156, 2-((3-(difluoromethyl)piperidin-1-yl)methyl)-6-(3-((1r,3r)-3-methoxy-1-(4-methyl-4H-1,2,4-triazol-3-yl)cyclobutyl)phenyl)-4-(trifluoromethyl)-1,6-dihydro-7H-pyrrolo[2,3-c]pyridin-7-one]	< 50 nM	<500 nM
Cn1cnnc1[C@]1(c2cccc(-n3cc(C(F)(F)F)c4cc(CN5CCCC(C(F)F)C5)[nH]c4c3=O)c2)C[C@H](C)C1 (stereo partly shown) [Compound T157, 2-((3-(difluoromethyl)piperidin-1-yl)methyl)-6-(3-((1s,3s)-3-methyl-1-(4-methyl-4H-1,2,4-triazol-3-yl)cyclobutyl)phenyl)-4-(trifluoromethyl)-1,6-dihydro-7H-pyrrolo[2,3-c]pyridin-7-one]	< 50 nM	<500 nM
C[C@H](NCc1cc2c(C(F)(F)F)cn(-c3cccc([C@]4(c5nncn5C)C[C@@H](C)C4)c3)c(=O)c2[nH]1)C(C)(C)C [Compound T158, 2-((((S)-3,3-dimethylbutan-2-yl)amino)methyl)-6-(3-((1s,3R)-3-methyl-1-(4-methyl-4H-1,2,4-triazol-3-yl)cyclobutyl)phenyl)-4-(trifluoromethyl)-1,6-dihydro-7H-pyrrolo[2,3-c]pyridin-7-one]	< 50 nM	<500 nM
